Among the data in PubChem BioAssay AID2060352 (Molecular Pharmacology Branch, DTP, NCI, 2025) are IC50 and viability, T/C values, retold here.

Values joined by “and” are separate entries in the source; they are usually repeats but may differ in a detail not shown here. Equal entries are not always repeated. A value given as a limit tells only on which side of the number the result lay.

Broadly, the IC50 is the midpoint of a concentration-inhibition curve. In general, viability, T/C refers to the ratio of treated to control.

The subject of the experiment is 616215-338-R-J1-PDC spheroid with HUVEC/MSC, viability. The experiment in a line: Anticancer human tumor 616215-338-R-J1-PDC patient-derived colon adenocarcinoma cell line growth inhibition [TAK]. The note with it: for viability, T/C: stronger effect = lower value. The procedure, abridged: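 Tumor cells were grown as spheroids with HUVEC and hMSC (60:25:15) and treated with targeted agents combined with TAK-243 or ipatasertib. Drugs were tested in half-log steps down from near the clinical Cmax, or from 10 microM where Cmax was unknown.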

[1] abbreviates: curve of first compound, second compound 0.3 µM.
[2] abbreviates: curve of first compound, second compound 0.949 µM.
[3] abbreviates: curve of first compound, second compound 3 µM.
The mark [4] stands for this setting: curve of first compound, second compound 9.49 µM.
Where [5] appears, read: curve of first compound, second compound 30 µM.
Where [6] appears, read: second compound 0.3 µM, first compound 0.316 µM.
The mark [7] stands for this setting: second compound 0.3 µM, first compound 1 µM.
Setting [8] is: second compound 0.949 µM, first compound 0.316 µM.
The mark [9] stands for this setting: second compound 0.949 µM, first compound 1 µM.
Setting [10] is: second compound 3 µM, first compound 0.316 µM.
[11] abbreviates: second compound 3 µM, first compound 1 µM.
[12] abbreviates: second compound 9.49 µM, first compound 0.316 µM.
Setting [13] is: second compound 9.49 µM, first compound 1 µM.
The mark [14] stands for this setting: second compound 30 µM, first compound 0.316 µM.
Setting [15] is: second compound 30 µM, first compound 1 µM.
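Also: spheroids exposed to drugs for 7 days before readout.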

On to `CCCS(=O)(=O)Nc1ccc(F)c(C(=O)c2c[nH]c3ncc(-c4ccc(Cl)cc4)cc23)c1F` + CC(C)NCC(C(=O)N1CCN(c2ncnc3c2C(C)CC3O)CC1)c1ccc(Cl)cc1, for which the concentration for half-maximal inhibition (IC50) is 7500 nM under setting [1]; 6750 nM under setting [2]; 2760 nM under setting [3]; below 316 nM under setting [4]; below 316 nM under setting [5]. The viability, T/C is 90.8% under setting [6]; 98.1% under setting [7]; 103% (second compound 0.3 µM, first compound 3.16 µM); 23.8% (second compound 0.3 µM, first compound 10 µM); 3.87% (second compound 0.3 µM, first compound 31.6 µM); 75% (second compound 0.3 µM, first compound 100 µM). Moreover, the viability, T/C is 107% under setting [8]; 114% under setting [9]; 104% (second compound 0.949 µM, first compound 3.16 µM); 16.6% (second compound 0.949 µM, first compound 10 µM); 1.77% (second compound 0.949 µM, first compound 31.6 µM); 46.8% (second compound 0.949 µM, first compound 100 µM). Also, the viability, T/C runs as follows: under setting [10], 90.5%; under setting [11], 76.8%; (second compound 3 µM, first compound 3.16 µM) 48%; (second compound 3 µM, first compound 10 µM) 7.53%; (second compound 3 µM, first compound 31.6 µM) 0.1%; (second compound 3 µM, first compound 100 µM) 3.35%. The viability, T/C under setting [12] is 29.1%; the viability, T/C under setting [13] was 28.8%; the viability, T/C (second compound 9.49 µM, first compound 3.16 µM) is 23.2%; the viability, T/C (second compound 9.49 µM, first compound 10 µM) was 3.54%; the viability, T/C (second compound 9.49 µM, first compound 31.6 µM) is 0.12%; the viability, T/C (second compound 9.49 µM, first compound 100 µM) is 1.39%. Further, the viability, T/C reads like this: under setting [14], 14.1%; under setting [15], 15.2%; (second compound 30 µM, first compound 3.16 µM) 9.06%; (second compound 30 µM, first compound 10 µM) 0.4%; (second compound 30 µM, first compound 31.6 µM) 0.13%; (second compound 30 µM, first compound 100 µM) 0.3%.
Turning to `CC(C)n1nc(-c2ccc3oc(N)nc3c2)c2c(N)ncnc21`, the viability, T/C is 95.9% and 105% (compound 0.000316 µM); 115% and 107% (compound 0.001 µM); 99.9% and 114% (compound 0.00316 µM); 112% and 130% (compound 0.01 µM); 127% and 146% (compound 0.0316 µM); 94% and 38% (compound 0.1 µM). The IC50 (curve of compound) was > 100 nM and 84.7 nM.
Regarding `COC1CC2CCC(C)C(O)(O2)C(=O)C(=O)N2CCCCC2C(=O)OC(C(C)CC2CCC(OCCO)C(OC)C2)CC(=O)C(C)C=C(C)C(O)C(OC)C(=O)C(C)CC(C)C=CC=CC=C1C` (centres undefined), the viability, T/C runs as follows: (compound 0.000316 µM) 98.5% and 109%; (compound 0.001 µM) 93.9% and 116%; (compound 0.00316 µM) 96.7% and 111%; (compound 0.01 µM) 107% and 112%; (compound 0.0316 µM) 110% and 117%; (compound 0.1 µM) 110% and 83%. Also, where the note is “curve of compound”, the IC50 is above 100 nM.
Regarding `COc1c(OCCCN2CCOCC2)ccc2c3n(c(=NC(=O)c4cnc(N)nc4)nc12)CCN3` + CC(C)NCC(C(=O)N1CCN(c2ncnc3c2C(C)CC3O)CC1)c1ccc(Cl)cc1, the IC50 is, setting by setting: under setting [1], 99.4 nM; under setting [2], 73.1 nM; under setting [3], 9.23 nM; under setting [4], below 3.16 nM; under setting [5], below 3.16 nM. Also, the viability, T/C by setting is: (second compound 0.3 µM, first compound 0.00316 µM) 101%; (second compound 0.3 µM, first compound 0.01 µM) 113%; (second compound 0.3 µM, first compound 0.0316 µM) 110%; (second compound 0.3 µM, first compound 0.1 µM) 49.7%; under setting [6], 27.2%; under setting [7], 17.6%. Besides, the viability, T/C runs as follows: (second compound 0.949 µM, first compound 0.00316 µM) 113%; (second compound 0.949 µM, first compound 0.01 µM) 117%; (second compound 0.949 µM, first compound 0.0316 µM) 83.3%; (second compound 0.949 µM, first compound 0.1 µM) 37.4%; under setting [8], 24.4%; under setting [9], 15.8%. Also, the viability, T/C runs as follows: (second compound 3 µM, first compound 0.00316 µM) 64.3%; (second compound 3 µM, first compound 0.01 µM) 49.7%; (second compound 3 µM, first compound 0.0316 µM) 33.9%; (second compound 3 µM, first compound 0.1 µM) 26.4%; under setting [10], 19.1%; under setting [11], 15.6%. For the same compound, the viability, T/C reads like this: (second compound 9.49 µM, first compound 0.00316 µM) 23.5%; (second compound 9.49 µM, first compound 0.01 µM) 31.1%; (second compound 9.49 µM, first compound 0.0316 µM) 20.9%; (second compound 9.49 µM, first compound 0.1 µM) 14.4%; under setting [12], 12.7%; under setting [13], 14.9%. Moreover, the viability, T/C was 11.7% (second compound 30 µM, first compound 0.00316 µM); 12.8% (second compound 30 µM, first compound 0.01 µM); 9.99% (second compound 30 µM, first compound 0.0316 µM); 9.6% (second compound 30 µM, first compound 0.1 µM); 8.41% under setting [14]; 7.42% under setting [15].
Regarding `Cn1cnc2c(F)c(Nc3ccc(Br)cc3Cl)c(C(=O)NOCCO)cc21` + CC(C)NCC(C(=O)N1CCN(c2ncnc3c2C(C)CC3O)CC1)c1ccc(Cl)cc1, the IC50 was 660 nM under setting [1]; 193 nM under setting [2]; 18.3 nM under setting [3]; below 9.49 nM under setting [4]; below 9.49 nM under setting [5]. For the same compound, the viability, T/C is 128% (second compound 0.3 µM, first compound 0.00949 µM); 145% (second compound 0.3 µM, first compound 0.03 µM); 134% (second compound 0.3 µM, first compound 0.0949 µM); 97.5% (second compound 0.3 µM, first compound 0.3 µM); 28.6% (second compound 0.3 µM, first compound 0.949 µM); 10.1% (second compound 0.3 µM, first compound 3 µM). The viability, T/C by setting is: (second compound 0.949 µM, first compound 0.00949 µM) 127%; (second compound 0.949 µM, first compound 0.03 µM) 110%; (second compound 0.949 µM, first compound 0.0949 µM) 68.7%; (second compound 0.949 µM, first compound 0.3 µM) 37.1%; (second compound 0.949 µM, first compound 0.949 µM) 16.3%; (second compound 0.949 µM, first compound 3 µM) 1.88%. Also, the viability, T/C by setting is: (second compound 3 µM, first compound 0.00949 µM) 62.6%; (second compound 3 µM, first compound 0.03 µM) 39.6%; (second compound 3 µM, first compound 0.0949 µM) 26.2%; (second compound 3 µM, first compound 0.3 µM) 18.2%; (second compound 3 µM, first compound 0.949 µM) 7.02%; (second compound 3 µM, first compound 3 µM) 2.31%. Moreover, the viability, T/C runs as follows: (second compound 9.49 µM, first compound 0.00949 µM) 20.1%; (second compound 9.49 µM, first compound 0.03 µM) 16.6%; (second compound 9.49 µM, first compound 0.0949 µM) 12.3%; (second compound 9.49 µM, first compound 0.3 µM) 8.61%; (second compound 9.49 µM, first compound 0.949 µM) 3.42%; (second compound 9.49 µM, first compound 3 µM) 1.74%. The viability, T/C reads like this: (second compound 30 µM, first compound 0.00949 µM) 9.63%; (second compound 30 µM, first compound 0.03 µM) 9.43%; (second compound 30 µM, first compound 0.0949 µM) 6.77%; (second compound 30 µM, first compound 0.3 µM) 4.12%; (second compound 30 µM, first compound 0.949 µM) 1.89%; (second compound 30 µM, first compound 3 µM) 1.35%.
